Measurements reported in patent US4243668A, “Octahydro-1H-benzo[4,5]furo[3,2-e]-isoquinoline analgesic and narcotic antagonistic compounds” (priority 1979, dated 1981).
Read-outs that look alike come from different tables or passages of the source.

Legend:
[1] = test system: induction of Straub tail in mice by a highly addicting agonist such as morphine; test: anti-Straub tail test, antagonism of morphine-induced Straub tail (narcotic antagonism); format: in vivo, Female CF1 S mice; details: for ED50: Mus musculus; for ED50 / EFFECT ED50 subcutaneous(s.c.) Anti-Straub Tail: mice, vs morphine sulfate 30 mg/kg i.p.
[2] = test system: pain induced by phenylquinone; test: phenylquinone writhing test (oral anti-PQW), analgesic activity; format: in vivo, female white mice; details: Mus musculus, po, mice, oral, phenylquinone writhing, ED50; read-out: EFFECT ED50 Oral Anti-PQW
Method: A standard procedure for detecting and comparing the analgesic activity of compounds in this series for which there is good correlation with human efficacy is the standard phenylquinone writhing test modified from Siegmund, et al., Proc. Soc. Exp. Biol. Med., 95, 729 (1957). A test compound suspended in 1% methocel® was given orally to fasted (17-21 hours) female white mice, 5-20 animals per double blind test. Aqueous (0.01% phenyl-p-benzoquinone) phenylquinone was injected intraperitoneally at 24 minutes later using 0.20 ml per mouse. […] The effective analgesic dose for 50% of the mice (ED50) was calculated by the moving average method of Thompson, W. R., Bact. Rev., 11, 115-145 (1947).

[3] = test system: Straub tail; test: Straub tail reaction (oral), narcotic agonist effect; format: in vivo, CF1 S female mice; details: Mus musculus, mice
Method: Narcotic analgesics produce in mice an erection and arching of the tail (90° or more) which is referable to spinal cord stimulation. This Straub tail reaction is not produced by other analgesics, including the narcotic antagonists.
The method used was modified from Shemano, I., and Wendel, H., Tox. Appl. Pharm., 6, 334-9 (1964). CF1 S female mice (18-21 g), 10-20 mice per dose, were intubated with log scaled doses of analgesic in 1% aqueous methylcellulose. A positive Straub tail response was recorded if a tail was erected 90° or more for 5 seconds at any time within 24 minutes after dosing. A quantal Straub tail ED50 was calculated by the moving average method [Thompson, W. R., Bact. Rev., 11, 115-145 (1947)].

[4] = sc, s.c., read-out: EFFECT ED50 subcutaneous(s.c.) Anti-Straub Tail
[5] = ip, i.p., read-out: EFFECT ED50 Intraperitoneal(i.p.) Anti-Straub Tail

Structure (SMILES)	ED50 [1, 4] [mg/kg]	ED50 [2] [mg/kg]	ED50 [3] [mg/kg]	ED50 [1, 5] [mg/kg]	EFFECT ED50 subcutaneous(s.c.) Anti-Straub Tail ([1]; s.c., listed as 3 (+)isomer)	EFFECT ED50 subcutaneous(s.c.) Anti-Straub Tail ([1]; s.c., listed as 3 (-)isomer)	narcotic antagonism, in words ([1]; mouse anti-Straub tail test)
CCCCN1CCC23c4cccc(O)c4OC2CCCC3C1 (stereo not shown) [Example 24]	0.032	23	> 135				
CCCN1CC[C@]23c4cccc(OC)c4O[C@H]2CCC[C@H]3C1 (relative stereo) [Example 21]	0.08	78	> 135				
CC(C)CN1CCC23c4cccc(O)c4OC2CCCC3C1 (stereo not shown) [Example 32]	0.03	63	> 135				
COc1cccc2c1O[C@H]1CCC[C@H]3CN(CC4CC4)CC[C@@]231 (relative stereo) [Example 4, 3-Cyclopropylmethyl-9-methoxy-2,3,4,4aα,5,6,7,7aα-octahydro-1H-benzo[4,5]furo[3,2-e]isoquinoline]		19.7	> 135	0.31			
COc1cccc2c1OC1CCCC3CN(CC4CCCCC4)CCC231 (stereo not shown) [Example 33]		135	> 135				
CCCCCN1CCC23c4cccc(OC)c4OC2CCCC3C1 (stereo not shown) [Example 25]	> 27	6.2	57				
CC(C)=CCN1CCC2(C)c3cc(O)ccc3CC1C2C (stereo not shown) [Pentazocine, reference compound]	4	56	> 135				
CN1CCC23c4cccc(O)c4OC2CCCC3C1 (single isomer, unassigned; isomer 3) [Example 3 (+)isomer, 3-Methyl-2,3,4,4aα,5,6,7,7aα-octahydro-1H-benzo[4,5]furo[3,2-e]isoquinolin-9-ol]					3.3		
COc1cccc2c1O[C@H]1CCC[C@H]3CN(C)CC[C@@]231 (relative stereo) [Example 2, 9-Methoxy-3-methyl-2,3,4,4aα-5,6,7,7aα-octahydro-1H-benzo[4,5]furo[3,2-e]isoquinoline]		9.8	> 135	10.1			
Oc1cccc2c1O[C@H]1CCC[C@H]3CN(CC4CCC4)CC[C@@]231 (relative stereo) [Example 7, 3-Cyclobutylmethyl-2,3,4,4aα,5,6,7,7aα-octahydro-1H-benzo[4,5]furo[3,2-e]isoquinoline-9-ol]		81	> 81	0.64			
CN1CC[C@]23c4ccccc4O[C@H]2CCC[C@H]3C1 (relative stereo) [Example 1, 3-Methyl-2,3,4,4aα,5,6,7,7aα,octahydro-1H-benzo[4,5]furo[3,2-e]isoquinoline]		14	> 81				
Oc1cccc2c1O[C@H]1CCC[C@H]3CN(Cc4ccccc4)CC[C@@]231 (relative stereo) [Example 11, 3-Benzyl-2,3,4,4aα,5,6,7,7aα-octahydro-1H-benzo[4,5]furo[3,2-e]isoquinoline-9-ol]	1.2	29	> 81				
CC(C)CCN1CC[C@]23c4cccc(O)c4O[C@H]2CCC[C@H]3C1 (relative stereo) [Example 19, 3-(3'-Methylbutyl)-2,3,4,4aα,5,6,7,7aα-octahydro-1H-benzo[4,5]furo[3,2-e]isoquinolin-9-ol]	0.64	33	> 135				
C=CCN1CC[C@]23c4cccc(OC)c4O[C@H]2CCC[C@H]3C1 (relative stereo) [Example 15, 3-Allyl-9-methoxy-2,3,4,4aα,5,6,7,7aα-octahydro-1H-benzo[4,5]furo[3,2-e]isoquinoline]	0.3	62	> 135				
CCCCCCN1CCC23c4cccc(OC)c4OC2CCCC3C1 (stereo not shown) [Example 27]	> 27	7	25				
CC(=O)Oc1cccc2c1O[C@H]1CCC[C@H]3CN(CC4CC4)CC[C@@]231 (relative stereo) [Example 9, 3-Cyclopropylmethyl-9-acetoxy-2,3,4,4aα,5,6,7,7aα-octahydro-1H-benzo[4,5]furo[3,2-e]isoquinoline]	0.005	0.75	> 135				
Cc1ccc(CCN2CCC34c5cccc(O)c5OC3CCCC4C2)cc1 (stereo not shown) [Example 36]	> 81	0.67	39				
Oc1cccc2c1OC1CCCC3CN(Cc4cccs4)CCC231 (stereo not shown) [Example 42]		108	> 135				
CC(C)=CCN1CC[C@]23c4cccc(O)c4O[C@H]2CCC[C@H]3C1 (relative stereo) [Example 18, 3-(3'-methyl-2'-butenyl)-2,3,4,4aα,5,6,7,7aα-octahydro-1H-benzo[4,5]furo[3,2-e]isoquinolin-9-ol]	> 27	10.8	32				
Oc1cccc2c1O[C@H]1CCC[C@H]3CNCC[C@@]231 (relative stereo) [Example 13, 2,3,4,4aα,5,6,7,7aα-octahydro-1H-benzo[4,5]furo[3,2-e]isoquinol in-9-ol]	> 27	15	> 135				

Structure (SMILES)	ED50 [1, 4] [mg/kg]	ED50 [2] [mg/kg]	ED50 [3] [mg/kg]	ED50 [1, 5] [mg/kg]	EFFECT ED50 subcutaneous(s.c.) Anti-Straub Tail ([1]; s.c., listed as 3 (+)isomer)	EFFECT ED50 subcutaneous(s.c.) Anti-Straub Tail ([1]; s.c., listed as 3 (-)isomer)	narcotic antagonism, in words ([1]; mouse anti-Straub tail test)
CCCN1CC[C@]23c4cccc(O)c4O[C@H]2CCC[C@H]3C1 (relative stereo) [Example 22]	0.008	112	> 135				
CCCCN1CC[C@]23c4cccc(OC)c4O[C@H]2CCC[C@H]3C1 (relative stereo) [Example 23]	0.82	33	> 135				
CN1CCC23c4cccc(O)c4OC2CCCC3C1 (single isomer, unassigned; isomer 3) [Example 3 (-)isomer, 3-Methyl-2,3,4,4aα,5,6,7,7aα-octahydro-1H-benzo[4,5]furo[3,2-e]isoquinolin-9-ol]			> 135			0.14	
Oc1cccc2c1OC1CCCC3CN(Cc4ccco4)CCC231 (stereo not shown) [Example 38]	7.2	108	> 135				
COc1cccc2c1OC1CCCC3CN(CCc4ccc(C)cc4)CCC231 (stereo not shown) [Example 35]	56	1.7	52				
CCN1CC[C@]23c4cccc(OC)c4O[C@H]2CCC[C@H]3C1 (relative stereo) [Example 14a, 3-ethyl-9-methoxy-2,3,4,4aα,5,6,7,7aα-octahydro-1H-benzo[4,5]furo[3,2-e] isoquinoline]	0.71	63	> 135				
CCN1CC[C@]23c4cccc(O)c4O[C@H]2CCC[C@H]3C1 (relative stereo) [Example 14b, 3-Ethyl-2,3,4,4aα,5,6,7,7aα-octahydro-1H-benzo[4,5]furo[3,2-e]isoquinolin-9-ol]	0.028	135	> 135				
CCCCCCCCN1CCC23c4cccc(O)c4OC2CCCC3C1 (stereo not shown) [Example 30]		4.2	54				
Oc1cccc2c1OC1CCCC3CN(CC4CCCO4)CCC231 (stereo not shown) [Example 40]	0.19	11.8					
C=CCN1CC[C@]23c4cccc(O)c4O[C@H]2CCC[C@H]3C1 (relative stereo) [Example 16, 3-Allyl-2,3,4,4aα,5,6,7,7aα-octahydro-1H-benzo[4,5]furo[3,2-e]isoquinolin-9-ol]	0.03	81	> 81				
CCCCCN1CCC23c4cccc(O)c4OC2CCCC3C1 (stereo not shown) [Example 26]	> 27	5.3	37				
CCCCCCN1CCC23c4cccc(O)c4OC2CCCC3C1 (stereo not shown) [Example 28]		2.9	26				
COc1cccc2c1OC1CCCC3CN(Cc4cccs4)CCC231 (stereo not shown) [Example 41]	> 27	48	> 135				
COc1cccc2c1O[C@H]1CCC[C@H]3CN(Cc4ccccc4)CC[C@@]231 (relative stereo) [Example 10, 3-Benzyl-9-methoxy-2,3,4,4aα,5,6,7,7aα-octahydro-1H-benzo[4,5]furo[3,2-e]isoquinoline]	48	48	> 81				pure narcotic antagonists
COc1cccc2c1OC1CCCC3CN(CC(C)C)CCC231 (stereo not shown) [Example 31]	0.24	94	> 135				
Oc1cccc2c1OC1CCCC3CN(CC4CCCCC4)CCC231 (stereo not shown) [Example 34]	> 27	23	> 135				
COc1cccc2c1O[C@H]1CCC[C@H]3CNCC[C@@]231 (relative stereo) [Example 12, 9-Methoxy-2,3,4,4aα,5,6,7,7aα-octahydro-1H-benzo[4,5]furo[3,2-e]isoquinoline]		47	> 81				
CCCCCCCCN1CCC23c4cccc(OC)c4OC2CCCC3C1 (stereo not shown) [Example 29]	> 27	7.2					
COc1cccc2c1OC1CCCC3CN(CC4CCCO4)CCC231 (stereo not shown) [Example 39]	4.7	16.7					
